In US12336971B2, “Ophthalmic pharmaceutical compositions and uses thereof” (ALCON INC., priority 2021, dated 2025):
Where two headings read alike, the source gives them in different places.

What was measured:
[1] = Equilibrium solubility of WS-12 in compositions / evaluation of solubilizers (HPLC); format: physicochemical
Protocol: As explained above, WS-12 is insoluble in water. Regardless, it was necessary to identify excipients that would provide WS-12 with a solubility of about 200 μM (0.0058%) in an aqueous medium compatible with administration (e.g., topical administration) to a human (e.g., a human eye). Several solubilizers were evaluated, including PEG 400 (polyethylene glycol 400), KOLLIDON 30 (polyvinylpyrrolidone), propylene glycol, TWEEN 80 (polyoxyethylene (20) sorbitan monooleate), KOLLIPHOR® EL or KOLLIPHOR® ELP (polyoxyl 35 castor oil) and tyloxapol (ethylene oxide-formaldehyde-p-octylphenol copolymer).

[2] = Loss of WS-12 concentration on storage in polyolefin containers; format: physicochemical
Protocol: It was discovered that there is an inverse relationship between the crystallinity of the polyolefin and the amount of WS-12 absorbed into the polyolefin when the pharmaceutical composition is stored in contact with the polyolefin at elevated temperatures (e.g. 40° C.). Crystallinity was measured by determining the melting temperature of the polyolefin by DSC, with higher melting temperatures denoting greater crystallinity.
LDPE 1, LDPE 2, LDPE 3, LDPE 4, and LDPE 5 in Table 12 correspond to LDPEs from different suppliers. Melting point values of the polyolefins were experimentally determined by differential scanning calorimetry (DSC). The densities of the polyolefins were as provided by the manufacturer's product data sheet.

[3] = WS-12 content in blow-fill-seal LDPE containers after curing at 40° C. and storage at 25° C.; format: physicochemical; details: Formulation 1 in LDPE BFS units; cured 10 days at 40° C., then stored at 25° C. over 140 days; FIG. 8
Protocol: The ‘curing’ technique, or process, described herein exploits the temperature dependence of WS-12 absorption into LDPE to yield a product that is stable when stored at 25° C. In some embodiments, the curing technique includes the following steps: (a) producing the BFS containers filled with an ophthalmic pharmaceutical composition provided herein; (b) storing the filled BFS containers at a first temperature (e.g. 40° C.) to drive WS-12 into the LDPE container with the aim of saturating the container walls with WS-12; and (c) subsequently storing the BFS containers at a second temperature (e.g., 25° C.) whereupon further loss of WS-12 to the container walls is stemmed due to the above described saturation process.
(99A long-term 25° C. trace). The first data point of each line represents the content of WS-12 in the BFS article after the curing period (e.g., the first temperature of storage). The amount of WS-12 lost to the LDPE increased as the duration of curing at 40° C. was increased from 1 day to 10 days. […] After a curing period of 10 days at 40° C. (black circles), the content of WS-12 in the BFS units stored at 25° C. was constant over a period of 140 days.

[4] = Chemical stability of WS-12 to typical drug stressors; format: physicochemical; details: typical drug stressors (acid, base, peroxide, heat, light)
[5] = JECFA, cited from earlier work

With `COc1ccc(NC(=O)[C@@H]2C[C@H](C)CC[C@H]2C(C)C)cc1` [WS-12, (1R,2S,5R)-2-isopropyl-N-(4-methoxyphenyl)-5-methylcyclohexane-1-carboxamide] the WS-12 level dissolved ([1]; KOLLIPHOR EL 3% w/v) was at least 200 µM, the “Effect on WS-12 solubility” value ([1]; TWEEN 80, required concentration greater than 4%) was “significantly increased” and the solubility ([1]; aqueous medium with solubilizer, aqueous with cosolvent or surfactant or cyclodextrin, thermodynamic from solid, KOLLIDON 30 (polyvinylpyrrolidone), read-out: WS-12 level solubilized) was under 200 µM. The solubility ([1]; aqueous ophthalmic composition, 2 °C, aqueous with cosolvent or surfactant or cyclodextrin, thermodynamic from solid, in 3% KOLLIPHOR EL, 0.14% hypromellose, 0.78% Na dihydrogen phosphate dihydrate, 0.55% NaCl, pH 7, 2°-8° C., read-out: WS-12 Solubility (mg/mL) 2°-8° C.) was 0.041 mg/mL, the solubility ([1]; aqueous ophthalmic composition, aqueous with cosolvent or surfactant or cyclodextrin, thermodynamic from solid, in 3% KOLLIPHOR EL, 0.14% hypromellose, 0.78% Na dihydrogen phosphate dihydrate, 0.55% NaCl, pH 7, about 17° C., read-out: WS-12 Solubility (mg/mL) Room Temp (about 17° C.)) was 0.055 mg/mL and the solubility ([1]; propylene glycol, read-out: WS-12 level solubilized) was under 200 µM. For the same compound, the solubility ([1]; tyloxapol, read-out: WS-12 level solubilized) was under 200 µM, the “Percent Loss in WS-12 Concentration After Storage in Polyolefin Container for 2 Weeks at 40° C.” value (“Percent Loss” below) ([2]; High Density Polyethylene (HDPE)) was 1.3% and the “Percent Loss” value ([2]; Low Density Polyethylene (LDPE 1)) was 2.8%. For the same compound, the “Percent Loss” value ([2]; Low Density Polyethylene (LDPE 2)) was 2.8%, the “Percent Loss” value ([2]; Low Density Polyethylene (LDPE 3)) was 3.3% and the “Percent Loss” value ([2]; Low Density Polyethylene (LDPE 4)) was 4.0%. For the same compound, the “Percent Loss” value ([2]; Low Density Polyethylene (LDPE 5)) was 4.5%, the “Percent Loss” value ([2]; Polypropylene (PP)) was 1.3% and the “Content of WS-12 in the BFS units” value [3] was “constant”. The Chemical stability [4] was “chemically stable”, the “Solubility in avocado oil” value ([5]; avocado oil) was “sparingly soluble” and the Solubility in ethanol ([5]; ethanol) was “sparingly soluble”. The Solubility in water ([5]; water) was “insoluble”.
